Assay results: US20250195513A1, “DEGRADATION OF IRAK4 BY CONJUGATION OF IRAK4 INHIBITORS WITH E3 LIGASE LIGAND AND METHODS OF USE” (BeiGene, Ltd., priority 2022, published 2025)
Read-outs that look alike come from different tables or passages of the source.

Target: T1, IRAK4 (Homo sapiens, UniProt Q9NWZ3)
T1 construct: endogenous in cells; host or cells: Karpas299
T1 sequence (Q9NWZ3 1-460): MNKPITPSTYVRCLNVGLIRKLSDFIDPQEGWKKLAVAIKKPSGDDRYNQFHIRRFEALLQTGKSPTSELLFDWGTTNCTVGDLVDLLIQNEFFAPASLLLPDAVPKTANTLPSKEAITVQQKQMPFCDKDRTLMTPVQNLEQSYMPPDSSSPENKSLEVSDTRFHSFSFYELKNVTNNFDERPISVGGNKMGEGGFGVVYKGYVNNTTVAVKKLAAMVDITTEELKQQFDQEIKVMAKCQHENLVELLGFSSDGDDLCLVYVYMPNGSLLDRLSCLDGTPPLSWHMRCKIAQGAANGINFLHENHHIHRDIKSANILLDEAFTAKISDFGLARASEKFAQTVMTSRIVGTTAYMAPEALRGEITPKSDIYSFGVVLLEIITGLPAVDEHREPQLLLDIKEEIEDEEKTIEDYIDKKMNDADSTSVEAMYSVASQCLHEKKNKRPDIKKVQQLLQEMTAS
Assay: IRAK4 Degradation Assay (Karpas299, HTRF/TR-FRET)
Format: cell-based
Conditions: Karpas-299 cells; for Dmax: maximum percentage of degradation
How it was run: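 Compound potency as DC50 (IC50) came from four-parameter fits of percent IRAK4 degradation. IRAK4 was measured by HTRF (665/620 nm) in lysates of Karpas299 cells seeded at 0.2 million per well. Cells had been treated with compound dilutions for 5 or 24 h.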

[1] = 24 h treatment, read-out: IRAK4 in Karpas-299 (24 h) Dmax (%)
[2] = 24 h treatment, read-out: IRAK4 in Karpas-299 (24 h) DC50

Dmax [1] | DC50 [2] | Dmax (5 h treatment, read-out: IRAK4 in Karpas-299 (5 h) Dmax (%)) | DC50 (5 h treatment, read-out: IRAK4 in Karpas-299 (5 h) DC50) | SMILES
98% | 4.4 nM |  |  | O=C1CCN(c2ccc(N3CCC(N4CCN([C@H]5CC[C@H](n6cc(NC(=O)c7coc(-c8ccnc(NCC(F)(F)F)c8)n7)c(C(F)F)n6)CC5)CC4)C3)cc2)C(=O)N1 (some centres unmarked) [Example 21, N-(3-(difluoromethyl)-1-((1r,4r)-4-(4-(1-(4-(2,4-dioxotetrahydropyrimidin-1(2H)-yl)phenyl)pyrrolidin-3-yl)piperazin-1-yl)cyclohexyl)-1H-pyrazol-4-yl)-2-(2-((2,2,2-trifluoroethyl)amino)pyridin-4-yl)oxazole-4-carboxamide]
97% | 0.3 nM |  |  | CC(C)(O)c1cc2nn(C34CCC(N5CCN(C(=O)C6CN(c7cc(F)c([C@H]8CCC(=O)NC8=O)c(F)c7)C6)CC5)(CC3)CC4)cc2cc1NC(=O)c1ccc2cc(C#N)cnn12 [Example 149, (R)-3-cyano-N-(2-(4-(4-(1-(4-(2,6-dioxopiperidin-3-yl)-3,5-difluorophenyl)azetidine-3-carbonyl)piperazin-1-yl)bicyclo[2.2.2]octan-1-yl)-6-(2-hydroxypropan-2-yl)-2H-indazol-5-yl)pyrrolo[1,2-b]pyridazine-7-carboxamide]
95% | 7.7 nM |  |  | COc1cc2nn(C3CCN(C4CCN(C(=O)[C@@H]5CCN(c6cc(F)c([C@H]7CCC(=O)NC7=O)c(F)c6)C5)CC4)CC3)cc2cc1NC(=O)c1cccc(C(F)(F)F)n1 [Example 43, N-(2-(1′-((R)-1-(4-((R)-2,6-dioxopiperidin-3-yl)-3,5-difluorophenyl)pyrrolidine-3-carbonyl)-[1,4′-bipiperidin]-4-yl)-6-methoxy-2H-indazol-5-yl)-6-(trifluoromethyl)picolinamide]
97% | 2.1 nM |  |  | NC(=O)c1nn([C@H]2CC[C@H](N3CCN(C(=O)C4CN(c5ccc(N6CCC(=O)NC6=O)cc5)C4)CC3)CC2)cc1NC(=O)c1coc(-c2ccnc(NCC(F)(F)F)c2)n1 [Example 8, N-(3-carbamoyl-1-((1r,4r)-4-(4-(1-(4-(2,4-dioxotetrahydropyrimidin-1(2H)-yl)phenyl)azetidine-3-carbonyl)piperazin-1-yl)cyclohexyl)-1H-pyrazol-4-yl)-2-(2-((2,2,2-trifluoroethyl)amino)pyridin-4-yl)oxazole-4-carboxamide]
80% | 183 nM |  |  | CC(C)(O)c1cc2nn([C@H]3CC[C@H](N4CCN(c5ccc(CCC(=O)NC6CCC(=O)NC6=O)cc5)CC4)CC3)cc2cc1NC(=O)c1ccc2cc(C#N)cnn12 (some centres unmarked) [Example 440, 3-cyano-N-(2-((1r,4r)-4-(4-(4-(3-((2,6-dioxopiperidin-3-yl)amino)-3-oxopropyl)phenyl)piperazin-1-yl)cyclohexyl)-6-(2-hydroxypropan-2-yl)-2H-indazol-5-yl)pyrrolo[1,2-b]pyridazine-7-carboxamide]
94% | 2 nM | 61% | 12 nM | CC(C)(O)c1cc2nn([C@H]3CC[C@H](N4CCN(C(=O)C5CN(c6cc(F)c([C@H]7CCC(=O)NC7=O)c(F)c6)C5)CC4)CC3)cc2cc1NC(=O)c1cccn(C2CC2)c1=O [Example 102, 1-cyclopropyl-N-(2-((1r,4r)-4-(4-(1-(4-((R)-2,6-dioxopiperidin-3-yl)-3,5-difluorophenyl)azetidine-3-carbonyl)piperazin-1-yl)cyclohexyl)-6-(2-hydroxypropan-2-yl)-2H-indazol-5-yl)-2-oxo-1,2-dihydropyridine-3-carboxamide]
